From ChEMBL document CHEMBL1201862, “PubChem BioAssay data set” (2004) come the findings set out here.

Active and inactive are the calls of the source.

Assay [1] concerns the target T1, Sphingosine 1-phosphate receptor 2 (Homo sapiens, UniProt O95136). The assay can be described thus: Dose Response Cell Based Assay for Agonists of the S1P2 Receptor. [Related pubchem assays: 729, 736, 843 ]. It is filed as functional.
Assay [2] can be described thus: blockers of bursicon-stimulated LGR2 cAMP reporter – cell-based, HEK293, CRE-luciferase reporter, cherry pick, set 2, dose response (AID 743343).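 Further: transfected cells were stimulated with diluted bursicon conditioned medium after compound addition.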 It is filed as functional. For orientation: Reporter assays use an easily measured gene product as a stand-in for the process of interest.
A short description of assay [3]: Late stage counterscreen results from the probe development effort to identify activators of signal transducer and activator of transcription 1 (STAT1): luminescence-based cell-based dose response assay to identify cytotoxic compounds. The format is functional. A general note: Counterscreens check selectivity or assay interference.
A short description of assay [4]: blockade of melanocortin 4 receptor signaling – cell-based, plate reader, cherry pick, counter-screen for LGR2 antagonist project, dose response (AID 743444).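 Further: transfected HEK 293 cells stimulated with alpha-MSH peptide; potency of inhibitors of the alpha-MSH evoked signal.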 The format is functional.
For assay [5], the target named is E3 ubiquitin-protein ligase Mdm2 (Homo sapiens, UniProt Q00987). Briefly: MDM2-luc reporter signal enhancers, multi-concentration potency testing, MDM2 ubiquitin-protein ligase inhibitor program, whole-cell format, luminescence detection, 384-well microplate (AID 1394).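 Further: MDM2 E3 inhibitors raise luminescence so EC50 is for signal enhancement.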 It is filed as functional.
Chain of E3 ubiquitin-protein ligase Mdm2 (Q00987 whole entry): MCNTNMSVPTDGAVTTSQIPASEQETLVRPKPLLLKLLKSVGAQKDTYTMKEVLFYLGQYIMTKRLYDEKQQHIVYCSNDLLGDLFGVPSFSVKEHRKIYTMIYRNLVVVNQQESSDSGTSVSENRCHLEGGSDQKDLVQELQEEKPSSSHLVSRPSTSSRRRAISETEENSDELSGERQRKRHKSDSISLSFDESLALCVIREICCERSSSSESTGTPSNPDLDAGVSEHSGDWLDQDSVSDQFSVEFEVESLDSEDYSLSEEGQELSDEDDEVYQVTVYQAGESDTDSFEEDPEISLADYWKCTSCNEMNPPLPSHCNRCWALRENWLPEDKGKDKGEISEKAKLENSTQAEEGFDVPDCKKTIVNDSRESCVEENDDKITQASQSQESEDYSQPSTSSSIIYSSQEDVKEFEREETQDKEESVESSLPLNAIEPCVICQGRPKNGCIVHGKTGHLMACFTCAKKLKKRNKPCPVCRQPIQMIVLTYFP
The target of assay [6] is T1, Sphingosine 1-phosphate receptor 2. Briefly: Dose Response Cell Based Assay for Antagonists of the S1P2 Receptor. [Related pubchem assays: 856, 736 ]. The format is functional.
For assay [7], the target named is Bifunctional protein GlmU (Mycobacterium tuberculosis, UniProt P9WMN3). The assay can be described thus: Inhibitors of Mycobacterial Glucosamine-1-phosphate acetyl transferase (GlmU). Secondary screen. More on the design: species or system Mycobacterium tuberculosis H37Rv.
Chain of Bifunctional protein GlmU (P9WMN3 whole entry): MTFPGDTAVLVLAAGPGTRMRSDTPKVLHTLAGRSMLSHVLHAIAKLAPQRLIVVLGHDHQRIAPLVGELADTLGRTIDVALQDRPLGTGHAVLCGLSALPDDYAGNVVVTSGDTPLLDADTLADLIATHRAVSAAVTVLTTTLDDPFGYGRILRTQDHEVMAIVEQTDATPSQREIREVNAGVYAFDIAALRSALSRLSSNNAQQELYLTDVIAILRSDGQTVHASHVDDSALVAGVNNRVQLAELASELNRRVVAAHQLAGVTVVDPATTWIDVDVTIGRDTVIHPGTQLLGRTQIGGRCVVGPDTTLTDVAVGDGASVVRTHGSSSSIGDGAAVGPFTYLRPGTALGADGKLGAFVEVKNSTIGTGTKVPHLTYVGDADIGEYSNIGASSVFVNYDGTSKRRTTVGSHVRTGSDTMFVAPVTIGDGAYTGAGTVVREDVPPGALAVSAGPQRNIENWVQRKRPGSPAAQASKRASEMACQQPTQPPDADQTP
The next assay deals with T2, Aminopeptidase N (Plasmodium falciparum FcB1/Columbia, UniProt O96935).
T2 sequence (O96935 whole entry): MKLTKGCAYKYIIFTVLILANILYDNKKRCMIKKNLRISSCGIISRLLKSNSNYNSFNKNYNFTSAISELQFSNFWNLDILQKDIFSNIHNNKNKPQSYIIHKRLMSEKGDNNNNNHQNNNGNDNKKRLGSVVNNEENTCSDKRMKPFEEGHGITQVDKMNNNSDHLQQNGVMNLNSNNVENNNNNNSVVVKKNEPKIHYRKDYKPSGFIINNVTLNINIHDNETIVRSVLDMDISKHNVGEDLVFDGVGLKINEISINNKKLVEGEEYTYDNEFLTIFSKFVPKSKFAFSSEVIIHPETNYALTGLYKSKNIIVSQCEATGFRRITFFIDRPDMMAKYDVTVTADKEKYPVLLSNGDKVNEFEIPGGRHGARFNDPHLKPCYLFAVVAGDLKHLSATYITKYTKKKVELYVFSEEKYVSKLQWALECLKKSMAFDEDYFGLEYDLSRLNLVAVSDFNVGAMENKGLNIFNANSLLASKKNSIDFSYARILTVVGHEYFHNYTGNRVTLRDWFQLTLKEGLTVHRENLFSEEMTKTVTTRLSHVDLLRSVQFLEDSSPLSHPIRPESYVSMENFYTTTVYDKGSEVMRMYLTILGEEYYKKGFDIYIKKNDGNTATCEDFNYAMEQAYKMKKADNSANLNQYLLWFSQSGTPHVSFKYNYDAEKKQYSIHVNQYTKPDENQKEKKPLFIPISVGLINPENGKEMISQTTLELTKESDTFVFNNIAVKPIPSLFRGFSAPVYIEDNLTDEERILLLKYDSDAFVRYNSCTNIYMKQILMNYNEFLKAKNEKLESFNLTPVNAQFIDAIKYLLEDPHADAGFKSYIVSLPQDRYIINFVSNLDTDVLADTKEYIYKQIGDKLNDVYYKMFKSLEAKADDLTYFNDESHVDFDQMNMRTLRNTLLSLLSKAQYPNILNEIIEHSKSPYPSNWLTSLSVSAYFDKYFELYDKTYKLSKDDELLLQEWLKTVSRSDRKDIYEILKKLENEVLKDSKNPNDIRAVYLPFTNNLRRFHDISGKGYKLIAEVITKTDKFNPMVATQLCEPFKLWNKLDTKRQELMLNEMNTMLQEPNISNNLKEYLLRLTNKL
The assay can be described thus: malaria alanyl aminopeptidase activity blockers – biochemical, fluorogenic H-Leu-NHMec substrate, 1536-well (AID 1445). More on the design: species or system Plasmodium falciparum 3D7, 3D7.

In another assay the target is NADPH oxidase 1 (Homo sapiens, UniProt Q9Y5S8). The assay can be described thus: Late-stage luminescence-based cell-based dose response assay to identify inhibitors of NADPH oxidase 1 (NOX1): Synthesized analogs 2. It is filed as functional.
The next assay has as its target Cytochrome P450 2C9 (Homo sapiens, UniProt P11712). The note with it: Potency.
The target of a further assay is Cytochrome P450 2C19 (Homo sapiens, UniProt P33261). Briefly: qHTS Assay for Inhibitors and Substrates of Cytochrome P450 2C19. [Related pubchem assays: 410 ]. The format is ADME. The note with it: read-out: Potency.
Chain of Cytochrome P450 2C19 (P33261 whole entry): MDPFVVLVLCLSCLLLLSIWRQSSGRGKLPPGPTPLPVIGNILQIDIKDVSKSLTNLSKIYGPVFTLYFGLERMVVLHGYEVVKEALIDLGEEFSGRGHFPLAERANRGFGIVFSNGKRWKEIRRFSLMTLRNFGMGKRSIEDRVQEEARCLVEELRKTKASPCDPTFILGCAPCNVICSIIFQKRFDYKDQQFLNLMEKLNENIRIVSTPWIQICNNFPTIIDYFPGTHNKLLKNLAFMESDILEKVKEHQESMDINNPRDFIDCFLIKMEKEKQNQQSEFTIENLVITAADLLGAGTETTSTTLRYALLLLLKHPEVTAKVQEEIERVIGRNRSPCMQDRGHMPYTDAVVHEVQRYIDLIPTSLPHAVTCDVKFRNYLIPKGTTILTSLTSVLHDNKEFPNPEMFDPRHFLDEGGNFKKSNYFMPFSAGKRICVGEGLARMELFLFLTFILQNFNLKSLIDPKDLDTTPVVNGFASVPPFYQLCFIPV
The target in assay [8] is Photoreceptor-specific nuclear receptor (Homo sapiens, UniProt Q9Y5X4). It is filed as functional.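 Further: potency for compounds that break the NR2E3 corepressor complex and count as activators.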
Chain of Photoreceptor-specific nuclear receptor (Q9Y5X4 whole entry): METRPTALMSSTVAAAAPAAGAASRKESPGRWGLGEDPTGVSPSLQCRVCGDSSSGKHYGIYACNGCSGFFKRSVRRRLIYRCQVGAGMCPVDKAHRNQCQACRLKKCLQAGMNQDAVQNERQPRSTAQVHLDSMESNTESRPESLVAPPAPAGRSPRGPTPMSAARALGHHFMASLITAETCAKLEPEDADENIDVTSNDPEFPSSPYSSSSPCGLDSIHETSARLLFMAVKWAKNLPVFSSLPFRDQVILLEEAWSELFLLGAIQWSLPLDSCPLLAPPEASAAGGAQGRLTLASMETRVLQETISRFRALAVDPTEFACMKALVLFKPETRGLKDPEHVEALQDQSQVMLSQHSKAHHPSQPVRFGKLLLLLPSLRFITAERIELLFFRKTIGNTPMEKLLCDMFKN
The target of assay [9] is Peroxisome proliferator-activated receptor gamma/Nuclear receptor corepressor 2 (Homo sapiens, UniProt P37231+Q9Y618). It is filed as functional.
Assay [10] has as its target T3, Polyadenylate-binding protein 1 (Homo sapiens, UniProt P11940). Briefly: MLLE binding blockers, Cy5 peptide tracer – biochemical, fluorescence polarization, Cy5-PAM2 peptide, secondary, miRNA deadenylation inhibitor project, dose response (AID 602260). The note with it: read-out: IC50_Mean. The format is functional. A general note: Fluorescence polarisation rises when a labelled molecule tumbles more slowly, as on binding a larger partner.

The next assay has as its target Estrogen receptor beta (Homo sapiens, UniProt Q92731).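 Further: recombinant ER-beta bound to coactivator SRC1 peptide in presence of estradiol agonist; inhibitors block coactivator peptide binding and lower the FRET signal.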
A short description of assay [11]: Luminescence Cell-Based Dose Response to Identify Activators of 5'UTR Stem-Loop Driven Prion Protein mRNA Translation in H4-C Neuroglioblastoma Cells. [Related pubchem assays: 1829 (Project Summary), 1814 (Primary HTS)]. The format is functional.
Assay [12] deals with T3, Polyadenylate-binding protein 1. Briefly: MLLE domain peptide-binding blockers, IC50 – biochemical, fluorescence polarization, FITC-PAM2 peptide, dose response (AID 602259). It is filed as functional. The note with it: read-out: IC50_Mean.
A short description of assay [13]: Luminescence Cell-Based Dose Confirmation to Identify Activators of 5'UTR Stem-Loop Driven Alpha-Synuclein mRNA Translation in H4 Neuroglioblastoma Cells. [Related pubchem assays: 1829 (Project Summary), 1814 (Primary HTS)]. It is filed as functional.
The nature of assay [14]: fluconazole-exposed Candida albicans growth modulators – fluorescence, retest, confirmation (AID 2467). The format is functional, cell-based.
Assay [15] can be described thus: Luminescence Cell-Based Dose Response HTS to Identify Activators of Luciferase Translation or Activity in H4 […] Cells. [Related pubchem assays: 1829 (Project Summary), 1814 (Primary HTS)]. It is filed as functional.
The nature of assay [16]: NIH-3T3 fibroblast cytotoxicity, dose response, cytotoxicity control, cell-based, fluorescence, Alamar Blue, secondary assay (AID 2327).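 Further: NIH-3T3 mouse fibroblasts cultured with fluconazole at 8 µg/mL.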 The format is functional.
Assay [17] concerns the target Voltage-gated inwardly rectifying potassium channel KCNH2 (Homo sapiens, UniProt Q12809). The assay can be described thus: concentration-dependent hERG rescue from blockers – cell-based, thallium flux, dose response (AID 2121). It is filed as ADME.
Assay [18] is described as follows: Luminescence Cell-Based Dose Response to Identify Activators of Luciferase Translation or Activity in H4-C Neuroglioblastoma Cells. [Related pubchem assays: 1829 (Project Summary), 1814 (Primary HTS)]. The format is functional.
Assay [19] can be described thus: THP-1 cell cytotoxicity, dose response, cytotoxicity control for non-replicating M. tuberculosis project (AID 489025). It is filed as functional.
Assay [20] can be described thus: HepG2 cell cytotoxicity, dose response, cytotoxicity control for non-replicating M. tuberculosis project (AID 489018). The format is functional. Conditions: Mycobacterium tuberculosis.
The target of assay [21] is Aryl hydrocarbon receptor (Homo sapiens, UniProt P35869). The assay can be described thus: Luminescence-based cell-based high throughput dose response assay for activators of the Aryl Hydrocarbon Receptor (AHR). [Related pubchem assays: 2796 (Primary screen (AHR activators in singlicate)), 2845 (Confirmation screen (AHR activators in triplicate)), 434939 (Counterscreen (PXR activators in triplicate)), 2804 (Summary (AHR activators))]. It is filed as ADME.
Chain of Aryl hydrocarbon receptor (P35869 whole entry): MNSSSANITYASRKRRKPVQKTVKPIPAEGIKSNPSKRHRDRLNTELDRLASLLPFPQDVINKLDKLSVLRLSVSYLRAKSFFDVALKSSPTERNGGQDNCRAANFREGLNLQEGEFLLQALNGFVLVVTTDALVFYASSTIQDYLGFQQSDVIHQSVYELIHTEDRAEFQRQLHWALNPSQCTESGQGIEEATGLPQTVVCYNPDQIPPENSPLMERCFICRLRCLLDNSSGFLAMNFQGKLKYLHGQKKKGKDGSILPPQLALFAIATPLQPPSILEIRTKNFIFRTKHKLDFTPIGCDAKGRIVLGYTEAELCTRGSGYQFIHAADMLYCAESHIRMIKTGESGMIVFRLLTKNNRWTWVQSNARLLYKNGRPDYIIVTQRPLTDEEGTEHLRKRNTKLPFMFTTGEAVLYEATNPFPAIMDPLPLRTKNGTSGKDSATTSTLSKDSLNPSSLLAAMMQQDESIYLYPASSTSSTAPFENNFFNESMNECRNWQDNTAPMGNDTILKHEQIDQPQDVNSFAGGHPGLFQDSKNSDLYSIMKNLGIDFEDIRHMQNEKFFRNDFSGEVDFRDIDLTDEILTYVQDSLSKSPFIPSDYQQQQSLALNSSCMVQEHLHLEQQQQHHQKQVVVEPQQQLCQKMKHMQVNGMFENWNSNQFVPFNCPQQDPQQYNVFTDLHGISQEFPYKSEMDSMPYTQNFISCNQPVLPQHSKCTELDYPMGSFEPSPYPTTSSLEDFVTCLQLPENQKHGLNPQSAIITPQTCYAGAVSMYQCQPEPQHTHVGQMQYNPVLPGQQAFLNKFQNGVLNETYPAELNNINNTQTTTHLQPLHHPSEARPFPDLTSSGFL

A short description of assay [22]: NIH3T3 cell viability loss – ATP luminescence, mouse fibroblasts, counter-screen, dose response (AID 2010).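 Further: cells exposed to compound for about 90 hours before reading.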 The format is functional, cell-based.
Assay [23] in a line: Vero E6 cell cytotoxicity, dose response, cytotoxicity control for non-replicating M. tuberculosis project, secondary assay (AID 492998). The format is functional, VeroE6. The note with it: Vero C1008.
A short description of assay [24]: Trypanosoma cruzi growth suppression in host cells – NIH3T3 host cells, beta-gal luminescence, confirmation (AID 2044).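 Further: intracellular parasites grown in NIH/3T3 mouse fibroblasts as host cells; luminescent beta-galactosidase reporter signal from transgenic T. cruzi replicating inside host cells; inhibitors lower the luminescence signal.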 It is filed as functional, cell-based.
A further assay in a line: cells. The format is functional.

T1 sequence (O95136 whole entry): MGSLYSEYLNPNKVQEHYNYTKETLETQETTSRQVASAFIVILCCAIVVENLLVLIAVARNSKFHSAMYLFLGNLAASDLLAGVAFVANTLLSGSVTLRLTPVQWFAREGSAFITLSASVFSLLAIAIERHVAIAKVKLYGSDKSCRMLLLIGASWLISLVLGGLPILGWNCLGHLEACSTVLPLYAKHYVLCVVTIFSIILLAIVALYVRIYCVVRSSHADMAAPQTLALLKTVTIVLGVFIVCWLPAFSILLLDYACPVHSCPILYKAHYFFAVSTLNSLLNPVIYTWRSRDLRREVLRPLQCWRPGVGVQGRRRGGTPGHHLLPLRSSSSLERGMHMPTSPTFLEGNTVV
T3 sequence (P11940 whole entry): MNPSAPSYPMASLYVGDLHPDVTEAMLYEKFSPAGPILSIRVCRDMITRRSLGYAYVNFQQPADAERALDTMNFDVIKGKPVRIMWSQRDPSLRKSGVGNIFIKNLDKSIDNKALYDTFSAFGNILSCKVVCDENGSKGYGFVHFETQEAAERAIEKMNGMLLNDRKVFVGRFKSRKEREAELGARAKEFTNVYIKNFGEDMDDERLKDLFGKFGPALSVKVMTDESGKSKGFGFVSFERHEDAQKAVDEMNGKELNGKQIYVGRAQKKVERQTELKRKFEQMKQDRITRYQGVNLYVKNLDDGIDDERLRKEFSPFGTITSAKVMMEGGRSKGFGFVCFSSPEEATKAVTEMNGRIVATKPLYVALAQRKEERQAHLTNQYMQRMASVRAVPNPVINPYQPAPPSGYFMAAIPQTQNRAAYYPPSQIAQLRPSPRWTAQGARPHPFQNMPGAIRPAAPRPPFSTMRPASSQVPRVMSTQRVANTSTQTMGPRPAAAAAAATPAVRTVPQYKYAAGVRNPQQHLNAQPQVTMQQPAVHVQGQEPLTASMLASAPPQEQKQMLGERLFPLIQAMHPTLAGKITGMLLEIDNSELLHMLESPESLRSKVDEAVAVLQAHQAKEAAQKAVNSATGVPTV
Chain of Cytochrome P450 2C9 (P11712 whole entry): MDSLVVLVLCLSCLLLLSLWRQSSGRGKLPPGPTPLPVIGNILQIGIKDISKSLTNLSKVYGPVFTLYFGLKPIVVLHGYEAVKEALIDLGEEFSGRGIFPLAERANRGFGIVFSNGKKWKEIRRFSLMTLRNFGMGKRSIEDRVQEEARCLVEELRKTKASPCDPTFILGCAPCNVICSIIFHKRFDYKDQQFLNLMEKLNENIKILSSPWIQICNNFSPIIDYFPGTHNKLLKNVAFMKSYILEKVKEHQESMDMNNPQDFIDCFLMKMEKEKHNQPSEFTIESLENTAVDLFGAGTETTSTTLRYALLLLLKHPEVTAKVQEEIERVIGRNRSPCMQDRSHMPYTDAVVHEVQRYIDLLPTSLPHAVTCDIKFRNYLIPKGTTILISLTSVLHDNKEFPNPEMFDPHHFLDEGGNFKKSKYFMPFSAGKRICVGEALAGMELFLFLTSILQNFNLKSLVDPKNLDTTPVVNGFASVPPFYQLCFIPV
Chain of Estrogen receptor beta (Q92731 whole entry): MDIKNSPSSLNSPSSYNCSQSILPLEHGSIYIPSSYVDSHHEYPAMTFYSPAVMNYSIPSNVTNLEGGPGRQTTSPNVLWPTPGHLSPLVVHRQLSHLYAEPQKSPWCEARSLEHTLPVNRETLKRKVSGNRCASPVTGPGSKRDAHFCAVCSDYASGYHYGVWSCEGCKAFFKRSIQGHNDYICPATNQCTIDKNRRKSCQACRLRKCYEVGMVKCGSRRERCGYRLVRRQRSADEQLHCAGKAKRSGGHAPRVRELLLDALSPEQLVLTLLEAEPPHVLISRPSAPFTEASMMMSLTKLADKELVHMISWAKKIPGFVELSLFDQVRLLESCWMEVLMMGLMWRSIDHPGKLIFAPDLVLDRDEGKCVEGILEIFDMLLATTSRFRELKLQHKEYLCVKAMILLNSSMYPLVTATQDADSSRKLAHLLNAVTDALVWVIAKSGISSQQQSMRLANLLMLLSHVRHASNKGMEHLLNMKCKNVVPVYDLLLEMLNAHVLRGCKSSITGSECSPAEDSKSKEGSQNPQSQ

In the case of `Oc1cccc(C(=S)N2CCN(Cc3ccccc3)CC2)c1`, the EC50 in assay [1] is > 50 µM (not active).

`COc1ccc(-c2cc(C)nc3c(-c4ccccc4)cnn23)cc1`: the AC50 in assay [2] was 15.9 µM (active); in assay [4], 20.1 µM (active). For the same compound, the IC50 in [3] is on record as > 55.7 µM (not active).

Consider `CC(C)Oc1ccc(C(=O)NC(=S)N2CCOCC2)cc1`, for which, in assay [5], the concentration giving a half-maximal response (EC50) is recorded as 25 µM (not active).

Regarding `CCOC(=O)C1C(=O)CC(C)(O)C(C(=O)OCC)C1c1ccccc1` (stereo not given), the IC50 in assay [6] is reported as > 50 µM (not active).

Turning to `O=C(CCCN1C(=O)/C(=C/c2ccco2)SC1=S)Nc1ccccc1C(=O)O`, the IC50 in assay [7] was 86 µM (active); on Aminopeptidase N, 102 µM (active).

Regarding `CC(=O)c1ccc2c(c1)N(C(=O)Nc1ccccc1)c1ccccc1S2`, the IC50 at NADPH oxidase 1 was 1.56 µM (active).

Take `CC(C)C[C@@H](CC(=O)N[C@@H](CCCN)CC(=O)N[C@@H]1CCCC[C@H]1C(=O)N[C@H](CC(=O)N[C@@H](CCC(=O)O)CC(=O)O)Cc1ccccc1)NC(=O)[C@@H]1CCCC[C@H]1N`: the AC50 at Cytochrome P450 2C9 is 3.98 µM (inconclusive); on Cytochrome P450 2C19, 39.8 µM (inconclusive).

Take `Cc1ccc(C(=O)Nc2nc3ccccc3c(=O)s2)cc1`: the IC50 in [8] was > 39.8 µM (not active); in assay [9], 2.71 µM (active); in assay [10], > 66 µM (inactive); against Estrogen receptor beta, > 50 µM (not active); in assay [12], > 66 µM (inactive). The EC50 in assay [11] is 0.311 µM (active); in assay [13], 0.295 µM (active); in [14] it was 10.2 µM (active); in [15], < 0.1 µM (inconclusive); in assay [16], > 160 µM (inactive); in assay [17], 2.74 µM (active). In assay [18], the EC50 was 0.303 µM (active).

Take `COc1ccc(/C=N/Nc2cc(C)nc3ccccc23)cc1`: the results for the 50% cytotoxic concentration (CC50) in assay [19], in [20] and in assay [23] were 12.1 µM (active), 12.5 µM (active) and 11 µM (active), respectively. Besides, the values for the half-maximal effective concentration (EC50) in assay [21], in assay [22] and in [24] were > 1.13 µM (active), 11.2 µM (active) and 2.35 µM (active), respectively. The IC50 in “cells” was 11.1 µM (active).

As a reminder, the EC50 is the concentration giving half of the maximal effect. A word on the CC50: it is the concentration at which the toxic effect on the cells reaches its halfway point.
